Reference: US11613558B2, “Peptides and pharmaceutical compositions for treating eye diseases” (Yuyu Pharma, Inc., priority 2018, dated 2023)
Square brackets hold non-standard residues; d marks the D form. Peptide text beside a SMILES is read from it. Pro(4,4-Me2) = CC1(C)CN[C@H](C(=O)O)C1; Pro(4-oxo) = O=C1CN[C@H](C(=O)O)C1; Hyp = O=C(O)[C@@H]1C[C@@H](O)CN1

Tests used:
[1] = system: rats with dry eye syndrome (extraorbital lacrimal gland excision, ELGE); test: Amount of tear secretion (Schirmer test, cobalt chloride paper) in ELGE rats with dry eye syndrome; type: in vivo, rat; conditions: for Tear Volumes, Day 7 / Tear Volumes, Day 14: ELGE rats, 3 mg/ml, 5 μl/eye twice daily; for Tear Volumes, Day 7: day 7 of administration; for Tear Volumes, Day 14: day 14 of administration; for Change in amount of tear secretion as compared with the ELGE control group: 3% solution as printed, after administration for 14 days
From the text: (§1) In order to evaluate the eye protection effect on dry eye syndrome by YDE-001 to YDE-028 prepared in Example 1, a total of 320 Sprague-Dawley-type male rats (OrientBio, Seungnam, Korea) were adapted for 7 days. Thereafter, dry eye syndrome was induced in 264 test rats through extraorbital lacrimal gland excision (hereinafter, ELGE). 8 test rats without the eye abnormality were subjected to a sham operation as a control group.
(§2) The rat was systemically anesthetized by inhaling a mixed gas of 2% to 3% of isoflurane (Hana Pharm. Co., Hwasung, Korea), 70% of N2O, and 28.6% of O2 using a rodent anesthesia machine (Surgivet, Waukesha, Wis., USA) and a ventilator (Model 687, Harvard Apparatus, Cambridge, UK). Thereafter, the extraorbital lacrimal gland located in the subdermal area above the masseter muscle and […] was excised through a transverse incision in a size of 10 mm on the anterior part of the left ear tragus. The skin was sutured by a general method. […] After 6 days from the ELGE operation, it was checked through the Schirmer test by measuring the amount of tear secretion whether dry eye syndrome had been induced. Meanwhile, each rat of the control group with the sham operation was checked for the presence and location of the extraorbital lacrimal gland through a skin incision, and the skin was then sutured without the excision thereof (FIG. 4).
(§3) In addition, in order to evaluate the eye protection effect on dry eye syndrome by YDE-029 to YDE-043 prepared in Example 1, a total of 200 Sprague-Dawley-type male rats (OrientBio, Seungnam, Korea) were adapted for 7 days. Dry eye syndrome was induced in 165 test rats through the ELGE. 8 test rats without the eye abnormality were subjected to the sham operation as a control group. The ELGE was carried out as described above.
(§4) For YDE-001 to YDE-028, YY-102 and the 28 YDE-series were each dissolved in physiological saline at a concentration of 3 mg/ml and administered at a dose of 5 μl/eye at 9:30 am and 3:30 pm daily for 14 days after 7 days from the ELGE operation for a total of 28 times. The DS solution was dissolved in physiological saline at a concentration of 30 mg/ml and administered at a dose of […] twice a day for 14 days after 7 days from the ELGE operation for a total of 28 times. For the sham control and the ELGE control groups, the same stimulation as the administration was applied. In order to prevent excessive eye dryness, the same volume of physiological saline was applied in the same manner in place of the test substances.
as §4, with “Further, for YDE-029 to YDE-043,” for “For YDE-001 to YDE-028,”, “YDE-029 to YDE-043, YY-102 and” for “YDE-001 to YDE-028, YY-102 and”, “and the 15 YDE-series were” for “and the 28 YDE-series were”, “the test substances (FIG. 7).” for “the test substances.”
After 6 days from the ELGE surgery, the changes in the amount of tear secretion were measured at day 7 and day 14 after the administration of YDE-001 to YDE-043. The amount of tear secretion was measured by the […] travel distance of tears absorbed by cobalt chloride paper in a size of 1×15 mm (Toyo Roshi Kaisha, Japan).
The cobalt chloride paper was placed in the lateral canthus of a rat for 60 seconds to absorb tears (FIG. 9). The length of the area absorbed from the corner of the cobalt chloride paper was measured with an electronic digital caliper (Mytutoyo, Tokyo, Japan) (FIG. 8).

[2] = system: cornea of rats with dry eye syndrome (ELGE); test: Corneal permeability of fluorescent dye (corneal damage) in ELGE rats with dry eye syndrome; type: in vivo, rat; conditions: 5 μl/eye twice daily, day 14
From the text: as §1, §2, §3, §4
as §4, with “Further, for YDE-029 to YDE-043,” for “For YDE-001 to YDE-028,”, “YDE-029 to YDE-043, YY-102 and” for “YDE-001 to YDE-028, YY-102 and”, “and the 15 YDE-series were” for “and the 28 YDE-series were”, “the test substances (FIG. 7).” for “the test substances.”
After YDE-001 to YDE-028 were each administered to the eyes […], the changes in the corneal permeability were checked.
In order to measure the corneal permeability, Zolethyl 50™ (Virbac Lab., Carros, France), an animal anesthetic, was intraperitoneally injected at a dose of 25 mg/kg. Thereafter, saline containing a 1% (v/v) fluorescent solution (fluorescein sodium salt, Tokyo Kasei Kogyo Co., Tokyo, Japan) was applied to the eyes at a dose of 5 μl/eye. The eyes thus treated were closed and fixed with a tape. After 1 hour, the remaining fluorescent solution was removed using a cotton swab (FIG. 12). […]

[3] = Stability in aqueous solution under long-term storage conditions (related substances); type: physicochemical; conditions: 25° C., 75% RH
Method: In order to confirm the stability of each test substance in an aqueous solution, […] of each sample was dissolved in 1 ml of water to a concentration of 1 mg/ml, which was then charged to a glass vial, plugged with a rubber cap, sealed with an aluminum cap, and stored under long-term storage conditions (25° C., 75% RH). The stability of the test substance was evaluated by measuring the amount of related substances at the time of one week, two weeks, four weeks, eight weeks, and twelve weeks under the long-term storage conditions.

[4] = Table 5, study of YDE-029 to YDE-043
[5] = Table 7, study of YDE-029 to YDE-043, 3 mg/ml
[6] = Table 4, study of YDE-001 to YDE-028
[7] = Table 6, study of YDE-001 to YDE-028, 3 mg/ml

Amount of related substances (after 12 weeks) [3] [%] | Structure (SMILES) | Tear Volumes, Day 7 [1, 4] [mm^3] | Tear Volumes, Day 14 [1, 4] [mm^3] | Change in amount of tear secretion as compared with the ELGE control group ([1]; study of YDE-029 to YDE-043) | Permeability of fluorescent dye [2, 5] [%] | Tear Volumes, Day 7 [1, 6] [mm^3] | Tear Volumes, Day 14 [1, 6] [mm^3] | Permeability of fluorescent dye [2, 7] [%] | Change in amount of tear secretion as compared with the ELGE control group ([1]; study of YDE-001 to YDE-028)
3.04 | CC(C)C[C@H](NC(=O)CNC(=O)[C@H](CC(C)C)NC(=O)[C@H](CCC(N)=O)NC(=O)CNC(=O)[C@@H]1C[C@@H](O)CN1)C(=O)N[C@@H](C)C(=O)O [YDE-041] (H-[Hyp]GQLGLA-OH) | 5.01 ± 1.26 | 6.25 ± 2.15 | did not show any significant changes | 46.38 ± 26.65 | – | – | – | –
3.92 | CC(C)C[C@H](NC(=O)CNC(=O)[C@H](CCC(=O)O)NC(=O)[C@H](CCC(N)=O)NC(=O)CNC(=O)[C@@H]1C[C@@H](O)CN1)C(=O)N[C@@H](C)C(=O)NCC(=O)N1CCC[C@H]1C(=O)N[C@@H](CCCCN)C(=O)O [YDE-001] (H-[Hyp]GQEGLAGPK-OH) | – | – | – | – | 4.88 ± 1.62 | 5.92 ± 2.19 | 25.49 ± 11.62 | –
21.33 | CC(C)C[C@H](NC(=O)[C@H](Cc1c[nH]c2ccccc12)NC(=O)[C@H](CC(=O)O)NC(=O)[C@H](CCC(N)=O)NC(=O)CNC(=O)[C@@H]1C[C@@H](O)CN1)C(=O)N[C@@H](C)C(=O)NCC(=O)N1CCC[C@H]1C(=O)N[C@@H](CCCCN)C(=O)O [YDE-021] (H-[Hyp]GQDWLAGPK-OH) | – | – | – | – | 4.08 ± 1.33 | 4.90 ± 1.13 | 37.00 ± 10.49 | did not show any significant changes
19.23 | CC(C)C[C@H](NC(=O)[C@H](Cc1c[nH]cn1)NC(=O)[C@H](CC(=O)O)NC(=O)[C@H](CCC(N)=O)NC(=O)CNC(=O)[C@@H]1C[C@@H](O)CN1)C(=O)N[C@@H](C)C(=O)NCC(=O)N1CCC[C@H]1C(=O)N[C@@H](CCCCN)C(=O)O [YDE-022] (H-[Hyp]GQDHLAGPK-OH) | – | – | – | – | 3.19 ± 0.67 | 4.10 ± 0.95 | 47.82 ± 10.01 | did not show any significant changes
12.74 | COC(=O)C[C@H](NC(=O)[C@H](CCC(N)=O)NC(=O)CNC(=O)[C@@H]1C[C@@H](O)CN1)C(=O)NCC(=O)N[C@@H](CC(C)C)C(=O)N[C@@H](C)C(=O)NCC(=O)N1CCC[C@H]1C(=O)N[C@@H](CCCCN)C(=O)O [YDE-027] (H-[Hyp]GQD(OMe)GLAGPK-OH) | – | – | – | – | 2.82 ± 0.86 | 3.95 ± 1.52 | 50.24 ± 11.94 | did not show any significant changes
3.89 | CC(C)C[C@H](NC(=O)CNC(=O)[C@H](CC(C)C)NC(=O)[C@H](CCC(N)=O)NC(=O)CNC(=O)[C@@H]1CC(=O)CN1)C(=O)N[C@@H](C)C(=O)NCC(=O)N1CCC[C@H]1C(=O)N[C@@H](CCCCN)C(=O)O [YDE-035] (H-[Pro(4-oxo)]GQLGLAGPK-OH) | 4.96 ± 0.96 | 6.25 ± 0.79 | – | 27.62 ± 6.51 | – | – | – | –
25.39 | CC(C)C[C@H](NC(=O)[C@H](C)NC(=O)[C@H](CC(=O)O)NC(=O)[C@H](CCC(N)=O)NC(=O)CNC(=O)[C@@H]1C[C@@H](O)CN1)C(=O)N[C@@H](C)C(=O)NCC(=O)N1CCC[C@H]1C(=O)N[C@@H](CCCCN)C(=O)O [YDE-018] (H-[Hyp]GQDALAGPK-OH) | – | – | – | – | 3.75 ± 1.54 | 4.99 ± 1.60 | 38.19 ± 10.96 | –
6.72 | CC(C)C[C@H](NC(=O)CNC(=O)[C@H](Cc1c[nH]c2ccccc12)NC(=O)[C@H](CCC(N)=O)NC(=O)CNC(=O)[C@@H]1C[C@@H](O)CN1)C(=O)N[C@@H](C)C(=O)NCC(=O)N1CCC[C@H]1C(=O)N[C@@H](CCCCN)C(=O)O [YDE-014] (H-[Hyp]GQWGLAGPK-OH) | – | – | – | – | 3.81 ± 1.21 | 5.62 ± 1.85 | 31.15 ± 10.87 | –
13.43 | CC(C)C[C@H](NC(=O)[C@H](Cc1ccccc1)NC(=O)[C@H](CC(=O)O)NC(=O)[C@H](CCC(N)=O)NC(=O)CNC(=O)[C@@H]1C[C@@H](O)CN1)C(=O)N[C@@H](C)C(=O)NCC(=O)N1CCC[C@H]1C(=O)N[C@@H](CCCCN)C(=O)O [YDE-019] (H-[Hyp]GQDFLAGPK-OH) | – | – | – | – | 4.84 ± 1.39 | 4.52 ± 1.07 | 40.39 ± 12.57 | did not show any significant changes
3.67 | CC(C)C[C@H](NC(=O)CNC(=O)[C@H](CO)NC(=O)[C@H](CCC(N)=O)NC(=O)CNC(=O)[C@@H]1C[C@@H](O)CN1)C(=O)N[C@@H](C)C(=O)NCC(=O)N1CCC[C@H]1C(=O)N[C@@H](CCCCN)C(=O)O [YDE-006] (H-[Hyp]GQSGLAGPK-OH) | – | – | – | – | 3.44 ± 1.69 | 5.35 ± 1.68 | 33.23 ± 13.26 | –
3.58 | CC(C)C[C@H](NC(=O)CNC(=O)[C@H](CC(C)C)NC(=O)[C@H](CCC(N)=O)NC(=O)CNC(=O)[C@@H]1CC(C)(C)CN1)C(=O)N[C@@H](C)C(=O)NCC(=O)N1CCC[C@H]1C(=O)N[C@@H](CCCCN)C(=O)O [YDE-040] (H-[Pro(4,4-Me2)]GQLGLAGPK-OH) | 5.77 ± 1.05 | 8.63 ± 1.53 | – | 18.33 ± 9.41 | – | – | – | –
3.98 | CC(C)C[C@H](NC(=O)CNC(=O)[C@H](CC(C)C)NC(=O)[C@H](CCC(N)=O)NC(=O)CNC(=O)[C@@H]1C[C@@H](O)CN1)C(=O)O [YDE-042] (H-[Hyp]GQLGL-OH) | 6.30 ± 1.08 | 7.97 ± 1.48 | – | 20.72 ± 11.37 | – | – | – | –
